These results are taken from ChEMBL document CHEMBL1921677, “Ungeremine effectively targets mammalian as well as bacterial type I and type II topoisomerases” (Bioorg Med Chem Lett, 2011).

≈ marks a conversion by molar mass, not a printed value. Calls of active or inactive are those of the source. The rule behind the calls is not given here.

One assay concerns Nucleic Acid. Kind of assay: Binding affinity to calf thymus DNA assessed as change in absorption spectra at increasing concentration at pH 8 by UV-Vis spectra analysis. The format is nucleic-acid assay. The conditions noted are these: Bos taurus.
Assay [1] concerns the target T1, DNA topoisomerase 1 (Homo sapiens) (UniProt P11387).
T1 sequence (whole entry): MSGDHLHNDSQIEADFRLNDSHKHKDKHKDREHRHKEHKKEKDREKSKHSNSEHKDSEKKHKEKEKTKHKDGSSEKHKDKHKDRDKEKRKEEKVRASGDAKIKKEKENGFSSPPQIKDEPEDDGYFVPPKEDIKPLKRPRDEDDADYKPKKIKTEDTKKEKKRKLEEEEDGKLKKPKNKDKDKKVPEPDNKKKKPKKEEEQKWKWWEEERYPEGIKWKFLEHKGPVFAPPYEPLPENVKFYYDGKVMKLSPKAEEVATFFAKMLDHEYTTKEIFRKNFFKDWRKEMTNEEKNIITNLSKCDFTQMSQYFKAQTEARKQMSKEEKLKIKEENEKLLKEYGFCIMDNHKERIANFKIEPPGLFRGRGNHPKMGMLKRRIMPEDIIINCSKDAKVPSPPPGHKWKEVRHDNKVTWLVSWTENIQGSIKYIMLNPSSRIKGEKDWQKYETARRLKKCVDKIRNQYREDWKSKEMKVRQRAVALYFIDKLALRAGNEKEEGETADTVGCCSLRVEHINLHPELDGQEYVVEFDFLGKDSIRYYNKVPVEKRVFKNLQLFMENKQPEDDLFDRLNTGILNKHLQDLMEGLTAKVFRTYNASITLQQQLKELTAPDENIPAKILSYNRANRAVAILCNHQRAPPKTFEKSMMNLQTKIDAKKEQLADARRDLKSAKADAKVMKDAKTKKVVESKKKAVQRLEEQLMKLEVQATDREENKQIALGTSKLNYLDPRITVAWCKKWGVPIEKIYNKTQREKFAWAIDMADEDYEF
The experiment in a line: (§1) Inhibition of human topoisomerase 1-mediated relaxation of supercoiled pBR322 DNA.

The target in assay [2] is T2, DNA topoisomerase 2-alpha (Homo sapiens, UniProt P11388). The experiment in a line: Inhibition of human topoisomerase 2alpha-mediated relaxation of supercoiled pBR322 DNA.
Another assay deals with MCF7. The experiment in a line: Cytotoxicity against human MCF7 cells after 72 hrs by MTT assay. The format is functional, cell-based. The conditions noted are these: MCF7, 72 h. In general terms: Tetrazolium dyes change colour on reduction, which living cells bring about.
For assay [3], the system named is Escherichia coli. Kind of assay: Inhibition of Escherichia coli topoisomerase 4 kinetoplast DNA decatenation activity assessed as formation of monomeric circle from DNA at pH 8 after 1 hr.
For a further assay, the target named is T3, DNA topoisomerase 1 (Homo sapiens, UniProt P11387).
T3 sequence (P11387 whole entry): T1 sequence (whole entry)
The assay is described as §1.

The target of assay [4] is T2, DNA topoisomerase 2-alpha. The experiment in a line: Inhibition of human topoisomerase 2alpha kinetoplast DNA decatenation activity assessed as formation of monomeric circle from DNA at pH 8 after 1 hr.
The next assay relates to Salmonella typhi. The experiment in a line: Antibacterial activity against Salmonella typhi by agar dilution method. The format is functional, Salmonella enterica subsp. enterica serovar Typhi. The conditions noted are these: Salmonella enterica.
Assay [5] in a line: Inhibition of Escherichia coli DNA topoisomerase 1-mediated relaxation of supercoiled pBR322 DNA.
Assay [6] in a line: Inhibition of Escherichia coli DNA topoisomerase 4-mediated relaxation of supercoiled pBR322 DNA.
Assay [7] has as its system Staphylococcus epidermidis. The experiment in a line: Antibacterial activity against Staphylococcus epidermidis by agar dilution method. The format is functional. Background: Agar dilution tests growth on a series of plates holding different concentrations.
For assay [8], the system named is Escherichia coli. Kind of assay: Stabilization of Escherichia coli DNA topoisomerase 1-DNA cleavage complex assessed as cleavage enhancement using 32P-TAACCCTGAAAGATTATGCAATGCGCTTTGGG ssDNA as substrate at 10 to 200 uM at pH 8 after 20 mins by agarose gel electrophoresis relative to control.
A further assay relates to HL-60. The experiment in a line: Cytotoxicity against human HL60 cells after 72 hrs by MTT assay. The format is functional, cell-based. The following applies: HL-60, 72 h.

T2 sequence (P11388 whole entry): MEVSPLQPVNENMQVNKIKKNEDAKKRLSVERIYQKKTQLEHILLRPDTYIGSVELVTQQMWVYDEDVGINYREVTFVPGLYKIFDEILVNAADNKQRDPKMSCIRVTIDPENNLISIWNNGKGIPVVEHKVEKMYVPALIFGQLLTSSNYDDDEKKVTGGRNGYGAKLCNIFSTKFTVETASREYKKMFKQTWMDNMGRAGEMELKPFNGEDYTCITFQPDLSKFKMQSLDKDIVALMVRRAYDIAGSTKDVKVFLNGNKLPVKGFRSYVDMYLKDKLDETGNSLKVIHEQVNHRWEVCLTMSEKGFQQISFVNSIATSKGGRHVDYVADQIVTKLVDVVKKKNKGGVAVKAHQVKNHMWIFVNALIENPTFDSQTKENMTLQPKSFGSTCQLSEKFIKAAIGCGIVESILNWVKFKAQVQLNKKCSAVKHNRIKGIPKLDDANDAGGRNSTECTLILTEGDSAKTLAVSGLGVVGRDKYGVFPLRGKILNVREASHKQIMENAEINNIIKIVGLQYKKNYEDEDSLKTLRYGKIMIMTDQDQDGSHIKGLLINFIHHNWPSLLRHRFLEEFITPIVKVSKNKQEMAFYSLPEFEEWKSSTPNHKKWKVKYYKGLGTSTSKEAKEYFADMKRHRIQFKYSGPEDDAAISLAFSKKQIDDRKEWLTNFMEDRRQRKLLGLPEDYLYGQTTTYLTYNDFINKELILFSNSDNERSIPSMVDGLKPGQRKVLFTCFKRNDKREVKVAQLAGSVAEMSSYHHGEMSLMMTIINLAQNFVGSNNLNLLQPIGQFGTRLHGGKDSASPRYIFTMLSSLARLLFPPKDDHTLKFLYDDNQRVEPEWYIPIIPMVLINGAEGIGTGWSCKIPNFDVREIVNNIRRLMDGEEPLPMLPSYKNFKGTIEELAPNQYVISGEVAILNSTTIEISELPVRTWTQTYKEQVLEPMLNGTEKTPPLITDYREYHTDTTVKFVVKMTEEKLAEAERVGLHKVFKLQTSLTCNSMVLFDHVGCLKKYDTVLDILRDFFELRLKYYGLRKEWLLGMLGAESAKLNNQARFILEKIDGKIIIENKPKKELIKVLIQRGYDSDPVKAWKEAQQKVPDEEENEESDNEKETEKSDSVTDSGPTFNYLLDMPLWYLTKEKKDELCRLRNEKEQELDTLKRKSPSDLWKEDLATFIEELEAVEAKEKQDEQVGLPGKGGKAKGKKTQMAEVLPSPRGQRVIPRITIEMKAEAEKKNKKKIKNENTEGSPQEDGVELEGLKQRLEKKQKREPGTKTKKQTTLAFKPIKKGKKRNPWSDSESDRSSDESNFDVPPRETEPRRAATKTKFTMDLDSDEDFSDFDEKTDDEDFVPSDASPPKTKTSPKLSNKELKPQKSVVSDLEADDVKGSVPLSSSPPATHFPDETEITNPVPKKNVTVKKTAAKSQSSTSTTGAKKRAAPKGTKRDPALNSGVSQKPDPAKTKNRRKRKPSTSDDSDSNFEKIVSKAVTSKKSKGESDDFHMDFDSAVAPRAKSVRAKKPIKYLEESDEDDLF

Take `O[C@@H]1C=C[C@]23CCN(Cc4cc5c(cc42)OCO5)[C@H]3C1`: the outcome in the assay with Nucleic Acid was inactive. Also, the inhibition result in [1] and in [2] was “inactive” each time.
As for `O[C@H]1[C@H]2c3cc4c(cc3CN3CCC(=C[C@@H]1O)[C@H]23)OCO4`, the result with Nucleic Acid was inactive. The inhibition entry in assay [1] and in [2] was “inactive” throughout.
Usually IC50 stands for the concentration at which inhibition is half-maximal. A high value points to weaker potency. The term MIC denotes the lowest concentration that inhibits growth of the organism. High values mean weaker potency, low ones greater potency. As for `[O-]c1cc2c3c(c1)c1cc4c(cc1c[n+]3CC2)OCO4` [UNGEREMINE], the IC50 was more than 40 µM in the assay on MCF7; 6.1 µM on DNA topoisomerase 1; 15 µM in assay [5]; 7.3 µM in assay [6]; 25.8 µM in [2]; 1.4 µM in the assay with HL-60. Also, the inhibition result in the assay with Escherichia coli [3] is “inactive”. Besides, the result in the assay on Nucleic Acid was Active. Moreover, the inhibition result in assay [4] was “Active”. The MIC turned out to be 125 µg/mL (≈ 471 µM) in the assay on Salmonella typhi and 31.2 µg/mL (≈ 118 µM) in [7]. The fold change (FC) with Escherichia coli [8] turned out to be 250.
